A short description of series [1]: Partition coefficient (logD) (octanol/phosphate buffer). Type of series: physicochemical.
The species named for series [2] is Rattus norvegicus. In words: Compound was evaluated for prevention of spontaneous lipid peroxidation in rat brain homogenate. Type of series: functional.
The test system of series [3] is Rattus norvegicus. In words: Total radioactivity 1 hour after intravenous administration of 1 mg/kg in rat blood. It is filed as functional.
Series [4] relates to Rattus norvegicus. In words: Total radioactivity 1 hour after intravenous administration of 1 mg/kg in rat heart. It is filed as functional.
For series [5], the system named is Rattus norvegicus. Briefly: Total radioactivity 1 hour after intravenous administration of 1 mg/kg in rat skeletal muscle. It is filed as functional, Muscle tissue.
Series [6] in a line: Ratio of total radioactivity of blood to blood in rats.
Series [7] in a line: Ratio of total radioactivity of heart tissue to blood in rats. It is filed as tissue-based.
Series [8] can be described thus: Ratio of total radioactivity of skeletal muscle to blood in rats.

Consider 6 molecules from ChEMBL document CHEMBL1125729, “A cardioselective, hydrophilic N,N,N-trimethylethanaminium alpha-tocopherol analogue that reduces myocardial infarct size” (J Med Chem, 1991).

The logD is lipophilicity at a set pH, counting ionised and neutral species. Lower therefore signals a more hydrophilic compound. Usually IC50 stands for the concentration that gives 50% inhibition. High values mean weaker potency, low ones greater potency.

With `Cc1c(C)c2c(c(C)c1O)CCC(C)(CC[N+](C)(C)C)O2` (stereo unspecified), the logD in series [1] is -0.6. Besides, the IC50 in the series listed under Rattus norvegicus [2] is 1.7 µM.

In series [1], `Cc1c(C)c2c(c(C)c1O)CCC(C)(C(=O)O)O2` (stereo unspecified) [TROLOX] displayed a logD of -1.02. The IC50 in the series listed under Rattus norvegicus [2] turned out to be 12 µM.

Regarding `Cc1c(C)c2c(c(C)c1O)CCC(C)(CCN(C)C)O2` (stereo unspecified), in series [1], the logD is 1.15. This molecule showed an IC50 in the series filed under Rattus norvegicus [2] of 0.5 µM.

Regarding `Cc1c(C)c2c(c(C)c1O)CC[C@@](C)(CCC[C@H](C)CCC[C@H](C)CCCC(C)C)O2` (racemic) [ALPHA-TOCOPHEROL], the IC50 in the series listed under Rattus norvegicus [2] came out at 12 µM.

On to `CC(=O)Oc1c(C)c(C)c2c(c1C)CCC(C)(CCN(C)C)O2` (stereo unspecified), for which the logD in series [1] was 1.56. Also, the values for the Total radioactivity in the series on Rattus norvegicus [3], in the series on Rattus norvegicus [4] and in the series on Rattus norvegicus [5] were 0.18, 0.28 and 0.27, respectively. Also, the Ratio in series [6] is 1; in series [7] it was 1.6; in series [8], 1.5.

`CC(=O)Oc1c(C)c(C)c2c(c1C)CCC(C)(CC[N+](C)(C)C)O2` (stereo unspecified) showed a logD in series [1] of -0.18. Besides, the Total radioactivity with Rattus norvegicus [3] was 0.11; in the series on Rattus norvegicus [4], 2.28; in the series on Rattus norvegicus [5] it was 0.19. The Ratio in series [6] is 1; in series [7] it was 20.7; in series [8] it was 1.7.
